The term Ki denotes a dissociation constant, usually derived from enzyme kinetics or from competition with a known ligand.

Like-named read-outs stand apart in the source and are kept apart here.

Test [1] deals with T1, leucine aminopeptidase from porcine kidney (SsLAP) (Sus scrofa, UniProt P28839).
T1 construct: Leucine aminopeptidase from porcine kidney (SsLAP) [26] and barley seeds (HvLAP) [21] were isolated and purified; from tissue; host or cells: porcine kidney
T1 sequence (P28839 1-519): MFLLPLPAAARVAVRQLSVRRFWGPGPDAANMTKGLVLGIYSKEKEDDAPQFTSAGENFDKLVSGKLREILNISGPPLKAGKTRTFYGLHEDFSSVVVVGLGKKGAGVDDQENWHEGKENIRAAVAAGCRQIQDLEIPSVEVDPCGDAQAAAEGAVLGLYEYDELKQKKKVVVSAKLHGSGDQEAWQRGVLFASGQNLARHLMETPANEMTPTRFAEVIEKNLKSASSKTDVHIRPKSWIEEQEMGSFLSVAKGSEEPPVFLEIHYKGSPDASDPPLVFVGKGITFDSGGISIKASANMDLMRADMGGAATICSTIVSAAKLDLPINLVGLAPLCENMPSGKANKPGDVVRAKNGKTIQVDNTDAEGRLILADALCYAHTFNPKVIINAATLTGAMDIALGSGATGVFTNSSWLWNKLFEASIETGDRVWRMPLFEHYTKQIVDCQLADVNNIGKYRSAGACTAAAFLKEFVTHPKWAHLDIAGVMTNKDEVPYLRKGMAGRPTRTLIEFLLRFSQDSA
In words: Inhibition of porcine kidney leucine aminopeptidase (enzyme kinetics). Type of test: biochemical. The note with it: porcine kidney LAP; compounds assayed as racemic mixtures. The text has this: (§1) Chemical and biochemical materials were purchased from Sigma-Aldrich (Poznań, Poland) and Avantor Performance Materials (Gliwice, Poland), and were used without further purification. Fluorogenic substrate Ala-AMC (L-alanine-4-methylcoumaryl-7-amide) was purchased from PeptaNova (Sandhausen, Germany). Microsomal alanyl aminopeptidase from porcine kidney (SsAPN) was purchased from Sigma-Aldrich (Poznań, Poland), and recombinant human alanine aminopeptidase (HsAPN) from R&D System (Minneapolis, MN, USA). Leucine aminopeptidase from porcine kidney (SsLAP) and barley seeds (HvLAP) were isolated and purified according to the procedures described previously. ^1H, ^13C, and ^31P NMR spectra were recorded on a 400YH (JEOL, Tokyo, Japan) spectrometer at 295 K. Mass spectra analyses were performed on a spectrometer LC-MS QDa (Waters e2695, 2489 UV/Vis Detector, Acquity QDa detector). HRMS spectra were registered using a Waters LCT Premier XE mass spectrometer (electrospray ionization, ESI) (Waters, Milford, MA, USA). The progress of the enzymatic reactions was monitored spectrophotometrically (UV-VIS Spectrophotometer, JASCO V-730) by following the change in absorbance at 405 nm (formation of p-nitroaniline), or by measuring fluorescence with a spectrofluorometer SpectraMax Gemini EM (Molecular Devices, San Jose, CA, USA) operating at two wavelengths: excitation 355 nm and emission 460 nm (for AMC).
(§2) The current studies followed the methodologies of the enzyme kinetic experiments, with calculation of the inhibition constants, and the mechanism of inhibition, which are presented in detail in our previous papers: For microsomal alanyl aminopeptidase from porcine kidney, recombinant human alanine aminopeptidase, leucine aminopeptidase from porcine kidney, and leucine aminopeptidase from barley seeds ([…]).

In test [2] the target is T2, recombinant human alanine aminopeptidase (HsAPN) (Homo sapiens, UniProt P15144).
T2 construct: purchased R&D System (Minneapolis, MN, USA)
T2 sequence (P15144 whole entry): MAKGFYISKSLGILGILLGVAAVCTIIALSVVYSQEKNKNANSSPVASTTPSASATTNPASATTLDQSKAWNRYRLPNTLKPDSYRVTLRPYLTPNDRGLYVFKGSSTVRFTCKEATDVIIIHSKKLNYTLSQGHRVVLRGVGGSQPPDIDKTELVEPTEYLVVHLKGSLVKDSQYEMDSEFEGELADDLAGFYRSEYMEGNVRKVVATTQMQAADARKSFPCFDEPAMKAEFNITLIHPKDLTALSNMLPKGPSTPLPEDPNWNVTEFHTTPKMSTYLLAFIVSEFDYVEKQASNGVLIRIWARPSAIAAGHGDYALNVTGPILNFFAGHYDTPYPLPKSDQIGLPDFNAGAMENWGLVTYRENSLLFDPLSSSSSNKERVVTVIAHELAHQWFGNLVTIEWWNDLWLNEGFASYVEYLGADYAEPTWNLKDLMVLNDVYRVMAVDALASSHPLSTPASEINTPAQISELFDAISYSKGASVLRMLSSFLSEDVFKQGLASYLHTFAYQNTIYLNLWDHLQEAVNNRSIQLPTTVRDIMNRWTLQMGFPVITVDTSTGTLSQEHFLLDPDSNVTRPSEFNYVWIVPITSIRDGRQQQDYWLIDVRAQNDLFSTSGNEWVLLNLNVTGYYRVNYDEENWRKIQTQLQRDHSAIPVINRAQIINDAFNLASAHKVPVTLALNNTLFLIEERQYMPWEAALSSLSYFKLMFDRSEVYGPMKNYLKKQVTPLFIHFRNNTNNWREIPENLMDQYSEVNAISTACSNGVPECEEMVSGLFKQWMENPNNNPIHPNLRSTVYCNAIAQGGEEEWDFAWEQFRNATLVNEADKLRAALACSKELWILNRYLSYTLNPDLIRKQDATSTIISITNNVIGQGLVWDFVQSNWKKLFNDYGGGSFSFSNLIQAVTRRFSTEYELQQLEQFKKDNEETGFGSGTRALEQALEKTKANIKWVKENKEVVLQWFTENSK
Description: Inhibition of recombinant human alanine aminopeptidase (enzyme kinetics). Type of test: biochemical. The note with it: for Ki: human APN; for Activity for human APN (in words): summary statement.
Description: as §1, §2

Test [3] concerns the target T3, microsomal alanyl aminopeptidase from porcine kidney (SsAPN) (Sus scrofa, UniProt P15145).
T3 construct: Microsomal alanyl aminopeptidase from porcine kidney (SsAPN) was purchased from Sigma-Aldrich; purchased Sigma-Aldrich (Poznań, Poland); host or cells: porcine kidney
T3 sequence (P15145 1-963): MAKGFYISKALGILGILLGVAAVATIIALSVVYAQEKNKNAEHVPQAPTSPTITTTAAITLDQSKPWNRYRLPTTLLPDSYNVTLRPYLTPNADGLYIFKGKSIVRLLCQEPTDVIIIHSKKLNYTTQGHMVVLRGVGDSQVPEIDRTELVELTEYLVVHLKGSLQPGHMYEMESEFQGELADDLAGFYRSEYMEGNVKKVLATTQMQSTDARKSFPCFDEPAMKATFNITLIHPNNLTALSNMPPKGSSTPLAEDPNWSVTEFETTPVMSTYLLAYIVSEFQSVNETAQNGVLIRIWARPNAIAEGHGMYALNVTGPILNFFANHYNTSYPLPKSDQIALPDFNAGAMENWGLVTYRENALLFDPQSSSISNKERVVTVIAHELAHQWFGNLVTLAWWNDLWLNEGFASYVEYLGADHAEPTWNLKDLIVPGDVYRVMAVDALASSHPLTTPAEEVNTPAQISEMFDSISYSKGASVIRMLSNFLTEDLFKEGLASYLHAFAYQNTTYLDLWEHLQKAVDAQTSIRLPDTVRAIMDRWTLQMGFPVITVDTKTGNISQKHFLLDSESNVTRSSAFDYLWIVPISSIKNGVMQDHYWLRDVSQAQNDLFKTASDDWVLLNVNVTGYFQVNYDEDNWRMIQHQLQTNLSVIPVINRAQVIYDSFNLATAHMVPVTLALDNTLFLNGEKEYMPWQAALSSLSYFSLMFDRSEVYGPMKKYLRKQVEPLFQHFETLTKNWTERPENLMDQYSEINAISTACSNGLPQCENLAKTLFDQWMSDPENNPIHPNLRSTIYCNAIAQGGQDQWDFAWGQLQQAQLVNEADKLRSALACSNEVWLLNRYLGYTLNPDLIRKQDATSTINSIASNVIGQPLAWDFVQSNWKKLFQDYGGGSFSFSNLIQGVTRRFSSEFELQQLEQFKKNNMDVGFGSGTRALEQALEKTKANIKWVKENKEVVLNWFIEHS
Description: Inhibition of porcine kidney alanyl aminopeptidase (enzyme kinetics). Type of test: biochemical. The note with it: porcine APN; compounds assayed as racemic mixtures.
Description: as §1, §2

A further test has as its target thermolysin. The note with it: competitive tight-binding inhibitor; cited from earlier work.
The target of test [4] is T3, microsomal alanyl aminopeptidase from porcine kidney (SsAPN). The arrangement: method as in doi:10.1016/j.tetlet.2011.04.037. To be noted: porcine APN; reference compound, reported previously; cited from earlier work.
For test [5], the target named is T1, leucine aminopeptidase from porcine kidney (SsLAP). More on the design: method as in doi:10.1016/j.tetlet.2011.04.037. To be noted: porcine kidney LAP; reference compound, reported previously; cited from earlier work.
Where [6] appears, read: compounds assayed as racemic mixtures, read-out: Ki HsAPN.

For the compound `NC(CCc1ccccc1)P(=O)(O)CN(CC(=O)O)Cc1ccc(Cl)cc1Cl` (stereo not drawn) [6a, N-{[1-Amino-3-phenylpropyl(hydroxy)phosphoryl]methyl}-N-2,4-dichlorobenzylaminoacetic acid], the Ki in test [1] came out at 107 µM; in test [2] (value of the abstract, read-out: Ki human alanyl aminopeptidase), 0.102 µM; in test [2] (setting [6]) it was 0.1 µM; in test [3] it was 7.7 µM. In test [2], the “Activity for human APN (in words)” value was “potent submicromolar activity”.

As for `NC(CCc1ccccc1)P(=O)(O)CN(CC(=O)O)Cc1ccc(Br)cc1` (stereo not drawn) [6b, N-{[1-Amino-3-phenylpropyl(hydroxy)phosphoryl]methyl}-N-4-bromobenzylaminoacetic acid], the Ki was found to be 168 µM in test [1], 0.13 µM in test [2] (setting [6]) and 5.8 µM in test [3]. The “Activity for human APN (in words)” value in test [2] was “potent submicromolar activity”.

For `NC(CCc1ccccc1)P(=O)(O)CN(CC(=O)O)Cc1ccc(C(=O)O)cc1` (stereo not drawn) [6c, N-{[1-Amino-3-phenylpropyl(hydroxy)phosphoryl]methyl}-N-4-carboxybenzylaminoacetic acid], the Ki in test [1] amounted to 27 µM; in test [2] (setting [6]), 1.4 µM; in test [3], 34 µM.

With `NC(CCc1ccccc1)P(=O)(O)CN(CC(=O)O)Cc1ccc([N+](=O)[O-])cc1` (stereo not drawn) [6d, N-{[1-Amino-3-phenylpropyl(hydroxy)phosphoryl]methyl}-N-4-nitrobenzylaminoacetic acid], the Ki in test [1] stood at 53 µM; in test [2] (setting [6]), 0.24 µM; in test [3] it was 17 µM. In test [2], the “Activity for human APN (in words)” value is given as “potent submicromolar activity”.

Turning to `NC(CCc1ccccc1)P(=O)(O)CNCC(=O)O` (stereo not drawn) [6g, N-{[1-Amino-3-phenylpropyl(hydroxy)phosphoryl]methyl}aminoacetic acid], the Ki was found to be 29 µM in test [1] and 63 µM in test [3].

In the case of `CC(C)CC(NP(=O)(O)C(Cc1ccccc1)NC(=O)OCc1ccccc1)C(=O)NC(C)C(=O)O` (stereo not drawn) [Cbz-PheP[NH]Leu-Ala-OH], the “Ki thermolysin (in words)” value on thermolysin is listed as “picomolar range”.

`NC(CCc1ccccc1)P(=O)(O)CN(CC(=O)O)Cc1ccccc1` (stereo not drawn) [compound 1]: the Ki was 3 µM in test [4] and 52 µM in test [5].

The values are drawn from PMC7571175, “N-Benzyl Residues as the P1′ Substituents in Phosphorus-Containing Extended Transition State Analog Inhibitors of Metalloaminopeptidases” (Molecules, 2020).
